According to ChEMBL document CHEMBL1133312, “S-nitrosothiols as novel, reversible inhibitors of human rhinovirus 3C protease” (Bioorg Med Chem Lett, 2000):
Square brackets hold non-standard residues; d marks the D form. Peptide text beside a SMILES is read from it. Cys(NO) = N[C@@H](CSN=O)C(=O)O

What was measured:
rhinovirus B14 [1] = assay: Compound was evaluated for the inactivation of HRV 14 3C protease activity expressed as KI; format: functional, human rhinovirus type 14
rhinovirus B14 [2] = assay: Compound was evaluated for the inactivation of HRV 14 3C protease activity expressed as kinact; format: functional, human rhinovirus type 14

| Structure (SMILES) | Ki (rhinovirus B14 [1]) [mM] | K inact (rhinovirus B14 [2]) [min⁻¹] |
| --- | --- | --- |
| C[C@@H](CSN=O)C(=O)N1CCC[C@H]1C(=O)O | 2.11 | 0.457 |
| CC(=O)N[C@@H](C(=O)NC1C(O)OC(CO)C(O)C1O)C(C)(C)SN=O (stereo not given in full) | 5.04 | 0.982 |
| CC(=O)N[C@@H](C(=O)O)C(C)(C)SN=O | 1.86 | 0.243 |
| CC(=O)N[C@@H](CCC(=O)O)C(=O)N[C@@H](C)C(=O)N[C@@H](CC(C)C)C(=O)N[C@@H](Cc1ccccc1)C(=O)N[C@@H](CCC(N)=O)C(=O)N[C@@H](CSN=O)C(=O)NCC(=O)O (Ac-EALFQ[Cys(NO)]G-OH) | 0.02 | 0.107 |
| N[C@@H](CCC(=O)N[C@@H](CSN=O)C(=O)NCC(=O)O)C(=O)O [S-NITROSOGLUTATHIONE] | 0.36 | 0.237 |
